Measurements taken from patent publication US20220218806A1, “PEPTIDES AND CONJUGATES FOR TREATMENT OF ARTHRITIS” (CRL-SCI Corporation, priority 2019, published 2022).
“Also recorded” adds a separate entry of the source. Read-outs that look alike come from different tables or passages of the source. Square brackets hold non-standard residues; d marks the D form. Ends that are not written are not given here. Cit = NC(=O)NCCC[C@H](N)C(=O)O

How the values were obtained:
[1] = in mice; cited from earlier work
CD4+ spleen T cells = assay: Intracellular cytokines and FoxP3 in spleen T cells by flow cytometry; assay type: cell-based, BALB/c mice
Protocol: (§1) Animals were euthanized on day 35 after the first control or LEAPS vaccination, and sera was collected. For histopathology, hind limbs (from 5 mice/treatment groups plus 3 normal mice limbs) were dissected and fixed in 10% buffered formalin. The specimens were embedded in paraffin and sectioned. Adjacent tissue sections were stained separately with TB and HE. Microscopic analysis and scoring of joint damage were carried out independently under code by Bolder BioPath. Serum anti-LEAPS peptide antibody levels were determined by ELISA using Neutavidin plates and Biotin labeled peptides for loading onto plates. To determine cytokine production by spleen cell cultures, after a 4-day stimulation of spleen cells with 7.5 μg/ml rhG1 (or no treatment as control), cytokines secreted into the culture media were assayed by MagPix as 9-plex or 6-plex kits from R&D Systems. For intracellular cytokines and FoxP3 detection, spleen cells from 5 mice from each group were cultured with rhG1 for 4 days. The cells were treated with PMA, ionomycin, and GolgiStop for 4 hours, stained for cell surface markers and intracellular cytokines or Foxp3. Samples were run on a FACS Canto flow cytometer and the results analyzed by FACS Diva software. Statistical analysis of data was done using GraphPad Prism 7 software package. Nonparametric and multiple comparison test were conducted as described. […]

GIA model of RA [2] = assay: Histopathology of hind limbs (ankles, hind paws) of diseased mice after vaccination; assay type: in vivo, BALB/c mice
[3] = system: beDerG-PG70, bePG275cit, beOVA-OR8, beDerG-PG275cit, bePG70, beDerG-GGG; assay: Serum anti-LEAPS peptide antibody ELISA (biotinylated peptides on NeutrAvidin plates); assay type: in vivo, BALB/c mice; details: sera of vaccinated mice, day 35
GIA model of RA [4] = assay: Visual arthritis score (VAS) after therapeutic LEAPS vaccination in rhG1-induced arthritis; assay type: in vivo, BALB/c mice; details: overall conclusion
spleen cells = assay: Cytokines secreted by rhG1-stimulated spleen cell cultures (MagPix); assay type: cell-based, BALB/c mice; details: 7.5 μg/ml rhG1 4 days, stimulated less non-stimulated
Protocol: as §1

[5] = in humans; cited from earlier work
[6] = ankles, 40x magnification, day 35
[7] = hind paws, digit joints, 16x magnification

Q: With “ATEGRVRVNSAYQDK-amide (ATEGRVRVNSAYQDK-NH2) [PG70, proteoglycan aggrecan (G1) residues 70-84]” as the substance, how does the Immunogenicity of epitope [1] read?
A: more immunogenic than PG70Cit

Q: With “DGQEEKAGVVSTGLIGGGMDMCSAGWLADCitSVR-amide (DGQEEKAGVVSTGLIGGGMDMCSAGWLAD[Cit]SVR-NH2; not fully specified) [DerG-PG275Cit]” as the substance, how does the “Treg cell activation (FoxP3)” value (CD4+ spleen T cells; CD4+ spleen T cells, rhG1 4 days) read?
A: appeared to activate Treg cells

Q: What about the “Cartilage damage, ankle histopathology” value (GIA model of RA [2]; [6]) of the same substance?
A: mild

Q: And the “Inflammation, ankle histopathology” value (GIA model of RA [2]; [6])?
A: moderate

Q: And the “Joints affected, ankle histopathology” value (GIA model of RA [2]; [6])?
A: the ankle and several digit joints

Q: And the “Joints affected, hind paw histopathology” value (GIA model of RA [2]; hind paws, 16x magnification)?
A: several digit joints

Q: What about the “Cartilage damage, hind paw histopathology” value (GIA model of RA [2]; [7]) of the same substance?
A: mild

Q: What about the “Inflammation, hind paw histopathology” value (GIA model of RA [2]; [7]) of the same substance?
A: moderate

Q: And the “Serum antibodies to vaccine peptides (OD 450 nm)” value [3]?
A: does not induce antibodies to either DerG or PG275Cit or the conjugate; also recorded: induced antibodies against neither the DerG element nor the PG275Cit element

Q: And the “Therapeutic effect / protection in the GIA model of RA” value (GIA model of RA [4])?
A: therapeutic in the GIA model of RA with high efficacy

Q: And the “Net secreted IFNγ” value (spleen cells)?
A: induced

Q: And the “Net secreted IL17A” value (spleen cells)?
A: induced

Q: Which results are given for “GQEEKAGVVSTGLIGGGMDMCSAGWLADRSVR-NH2 [DerG-PG275]”?
A: Modulation of Th2, Treg, Th1 cells and cytokines (CD4+ spleen T cells; overall conclusion): does not appear to up modulate Th2 or Treg or Th1 cells or cytokines; Therapeutic effect / protection in the GIA model of RA (GIA model of RA [4]): can provide protection alone

Q: What does the source list for “MDMCSAGWLADCitSVR-amide (MDMCSAGWLAD[Cit]SVR-NH2; not fully specified) [PG275Cit]”?
A: Immunogenicity of epitope [1]: more immunogenic than PG275; Immunogenicity of epitope [5]: more immunogenic than PG275
